“And” between values parts separate entries of the source, which are not always exact repeats. Equal entries are not always repeated. Where two headings read alike, the source gives them in different places.
Columns and labels:
clinical = details: in vivo; for CL renal: CLr; for CL/F: CLtot/F
Description: Total of 18 HIV-1 infected males, aged 18-55 years, enrolled, 6 per treatment cohort.
In Cohort 3, subjects received either 100 mg, or 200 mg, or placebo.
The data was analyzed using non-compartmental and two-compartmental models.
HIV RNA levels were also determined using quantitative real-time RT-PCR.
Plasma HIV-1 RNA levels were measured by quantitative reverse transcriptase-polymerase chain reaction (Q-RT-PCR) essentially as described by Stuyver, L. J. et al., “Antiviral activity and cellular toxicity of modified 2′,3′-dideoxy-2′,3′-didehydrocytidine analogues” Antimicrob Agents Chemother.

[1] = human, in vivo
[2] = Food effect, fed versus fasted crossover (Cohort 4); details: for AUC / AUC(0-inf) / CL/F / Cmax / half-life / Tmax: human, plasma, oral, 100 mg, PART B; for AUC: AUC(0-τ); for CL/F: CLtot/F; for half-life: t1/2 λz
wild type HIV-1 = details: read-out: in vitro EC90 for wild type virus; cited from earlier work
HepG2 cells = test: Mitochondrial toxicity testing (mitDNA, rRNA, lactic acid); assay type: cell-based; details: 14 days; for % Change in Lactic Acid: normalized for cytotoxicity
Description: HepG2 cells were incubated for 14 days with the active agent. and mitDNA and rRNA levels were determined by quantitative real-time PCR. The results are tabulated in […]

[3] = tested on: mouse primary bone marrow cells; test: Mitochondrial toxicity in primary bone marrow cells; assay type: cell-based; details: concentrations <1 mM
plasma HIV-1 RNA = assay type: in vivo; details: for reduction of viral load: 48 hours
Description: The study consisted of a double-blind, randomized, placebo-controlled, three-period crossover, dose escalation design in HIV-infected male subjects. Five dose levels (10, 25, 50, 100, and 200 mg) were administered in three cohort studies. Seven days elapsed between the end of one cohort and the start of the next dosing period.

[4] = 100 MG FED, coated tablet after high fat meal

## Nc1nc(=O)n(C2C=CC(CO)O2)cc1F [β-D-D4FC, β-D-2′,3′-Didehydro-2′,3′-dideoxy-5-fluorocytidine]
clinical; human, 50 mg
  mean terminal half-life in plasma (t1/2): 6.8±4.2 h to 15.6±12.4
clinical; human, 200 mg
  mean t1/2: 11.3±1.6 hours to 14.3±3.1
clinical; human, po
  oral bioavailability: high oral bioavailability
clinical; male, human
  mean plasma half-life (t1/2): 12.3 ± 4.0 h
clinical; male, human, 10 mg
  Cmax: ~1000 nM
  AUC(0-inf): 858 ng·h/mL
  CL renal: 136 mL/min
  CL/F: 196 mL/min
clinical; male, human, 10 mg, AUC Actual
  AUC: 3.6 ± 0.5 µM·h
clinical; male, human, 10 mg, AUC(0-τ)
  AUC: 843 ng·h/mL
clinical; male, human, 10 mg, Cmax
  Cmax: 197 ng/mL
clinical; male, human, 10 mg, Cmax Actual
  Cmax: 870 ± 130 nM
clinical; male, human, 10 mg, lowest Cmax, at which a maximal effect of viral inhibition was obtained
  Cmax: 870 nM
clinical; male, human, 10 mg, t1/2 λz
  half-life: 4.2 h
clinical; male, human, 10 mg, tmax
  Tmax: 1 h
clinical; male, human, 25 mg, AUC Actual
  AUC: 8.1 ± 1.5 µM·h
clinical; male, human, 25 mg, AUC(0-τ)
  AUC: 1830 ng·h/mL
clinical; male, human, 25 mg
  AUC(0-inf): 1840 ng·h/mL
  CL renal: 120 mL/min
  CL/F: 230 mL/min
clinical; male, human, 25 mg, Cmax
  Cmax: 406 ng/mL
clinical; male, human, 25 mg, Cmax Actual
  Cmax: 1800 ± 500 nM
clinical; male, human, 25 mg, t1/2 λz
  half-life: 4.49 h
clinical; male, human, 25 mg, tmax
  Tmax: 1.17 h
clinical; male, human, 50 mg
  AUC(0-τ): 3,196 ng · h/mL
  AUC(0-∞): 3,221 ng · h/mL
  CLr: 4.30 L/h
  CLtot/F: 17,492 mL/h
  Cmax: 572 ng/mL
  t1/2 λz: 7.02 h
  AUC(0-inf): 3500 ng·h/mL
  CL renal: 73.2 mL/min
  CL/F: 245 mL/min
clinical; male, human, 50 mg, AUC Actual
  AUC: 27 ± 6.4 µM·h
clinical; male, human, 50 mg, AUC(0-τ)
  AUC: 3470 ng·h/mL
clinical; male, human, 50 mg, Cmax
  Cmax: 668 ng/mL
clinical; male, human, 50 mg, Cmax Actual
  Cmax: 4800 ± 1300 nM
clinical; male, human, 50 mg, mean Cmax
  Cmax: 2500 nM
clinical; male, human, 50 mg, t1/2 λz
  half-life: 7.73 h
clinical; male, human, 50 mg, tmax
  Tmax: 1 h
clinical; male, human, 100 mg, AUC Actual
  AUC: 32.7 ± 6.8 µM·h
clinical; male, human, 100 mg, AUC(0-τ)
  AUC: 7010 ng·h/mL
clinical; male, human, 100 mg
  AUC(0-inf): 7100 ng·h/mL
  CL renal: 124 mL/min
  CL/F: 242 mL/min
clinical; male, human, 100 mg, Cmax
  Cmax: 1120 ng/mL
clinical; male, human, 100 mg, Cmax Actual
  Cmax: 5000 ± 1200 nM
clinical; male, human, 100 mg, t1/2 λz
  half-life: 9.25 h
clinical; male, human, 100 mg, tmax
  Tmax: 2.92 h
clinical; male, human, 200 mg, AUC Actual
  AUC: 52.5 ± 9.2 µM·h
clinical; male, human, 200 mg, AUC(0-τ)
  AUC: 11200 ng·h/mL
clinical; male, human, 200 mg
  AUC(0-inf): 11400 ng·h/mL
  CL renal: 125 mL/min
  CL/F: 301 mL/min
clinical; male, human, 200 mg, Cmax
  Cmax: 1750 ng/mL
clinical; male, human, 200 mg, Cmax Actual
  Cmax: 7700 ± 1600 nM
clinical; male, human, 200 mg, mean Tmax
  Tmax: 2.9 ± 1.6 h
clinical; male, human, 200 mg, t1/2 λz
  half-life: 10.9 h
clinical; male, human, 200 mg, tmax
  Tmax: 3.33 h
clinical; male, human, mean Tmax
  Tmax: 1.1 ± 0.2 h
clinical; male, human, mean plasma half-life (t1/2)
  half-life: 12.3 ± 4 h
clinical; male, human, po, 10 mg
  AUC Projected: 5.0 µM·h
  Cmax: 630 nM
clinical; male, human, po, 10 mg, AUC
  AUC: 3.57 ± 0.55 µM·h
clinical; male, human, po, 10 mg, Cmax
  Cmax: 870 ± 130 nM
clinical; male, human, po, 10 mg, T ½
  half-life: 6.8 ± 4.2 h
clinical; male, human, po, 10 mg, Tmax
  Tmax: 1 h
clinical; male, human, po, 25 mg
  AUC Projected: 12.5 µM·h
  Cmax: 1600 nM
clinical; male, human, po, 25 mg, AUC
  AUC: 8.12 ± 1.47 µM·h
clinical; male, human, po, 25 mg, Cmax
  Cmax: 1760 ± 480 nM
clinical; male, human, po, 25 mg, T ½
  half-life: 15.6 ± 12.4 h
clinical; male, human, po, 25 mg, Tmax
  Tmax: 1.4 ± 1.1 h
clinical; male, human, po, 50 mg
  AUC: 28.03 ± 4.51 µM·h
  AUC Projected: 25 µM·h
  T ½: 13.8 ± 2.4 h
clinical; male, human, po, 50 mg, AUC
  AUC: 25.9 ± 8.3 µM·h
clinical; male, human, po, 50 mg, Cmax
  Cmax: 4400 ± 1600 nM
clinical; male, human, po, 50 mg, T ½
  half-life: 14.3 ± 3.1 h
clinical; male, human, po, 50 mg, Tmax
  Tmax: 2 ± 0.8 h
clinical; male, human, po, 100 mg
  AUC Projected: 50 µM·h
  Cmax: 6300 nM
clinical; male, human, po, 100 mg, AUC
  AUC: 32.7 ± 6.85 µM·h
clinical; male, human, po, 100 mg, Cmax
  Cmax: 4950 ± 1200 nM
clinical; male, human, po, 100 mg, T ½
  half-life: 11.3 ± 1.6 h
clinical; male, human, po, 100 mg, Tmax
  Tmax: 2.9 ± 1 h
clinical; male, human, po, 200 mg
  AUC Projected: 100 µM·h
  Cmax: 12600 nM
clinical; male, human, po, 200 mg, AUC
  AUC: 52.5 ± 9.2 µM·h
clinical; male, human, po, 200 mg, Cmax
  Cmax: 7700 ± 1600 nM
clinical; male, human, po, 200 mg, T ½
  half-life: 12 ± 0.6 h
clinical; male, human, po, 200 mg, Tmax
  Tmax: 3.3 ± 1.6 h
clinical; male
  time plasma levels remain above the median effective concentrations in human PBM cells: > 24 h
[1]
  Intracellular [Nuc-PPP] in patients (target): 0.5 µM
[2]; 100 mg coated tablets, high fat meal
  Cmax and AUC values in the fed regimen as fraction of the fasted regimen: less than 1/10
[2]; 100 MG FASTED, coated tablet
  AUC: 6110 ng·h/mL
  AUC(0-inf): 6170 ng·h/mL
  CL/F: 478 mL/min
  Cmax: 1160 ng/mL
  half-life: 8.61 h
  Tmax: 1.83 h
[2]; [4]
  AUC: 542 ng·h/mL
  AUC(0-inf): 643 ng·h/mL
  CL/F: 3380 mL/min
  Cmax: 90 ng/mL
  half-life: 4.38 h
  Tmax: 2.5 h
Wild type HIV-1
  EC90: 900 nM and < 1000 nM
HepG2 cells; 1 μM
  % Change in mitDNA: 0%
  % Change in rRNA: 0%
  % Change in Lactic Acid: +12%
HepG2 cells; 10 μM
  % Change in mitDNA: −1.6%
  % Change in rRNA: 0%
  % Change in Lactic Acid: −2%
[3]
  mitochondrial toxicity: not associated with mitochondrial toxicity
Plasma HIV-1 RNA; 10 mg
  drop in viral load, subject with mutant virus L41+N103+C181+W210+D215: 0.61 log10
Plasma HIV-1 RNA; 10 mg dose
  reduction of viral load: 0.42±0.2 log10 and 0.42 log10
Plasma HIV-1 RNA; 10 mg, 12 h
  Change in Plasma HIV-1 RNA: 0.05 ± 0.09 log10
Plasma HIV-1 RNA; 10 mg, 24 h
  Change in Plasma HIV-1 RNA: −0.12 ± 0.14 log10
Plasma HIV-1 RNA; 10 mg, 48 h
  Change in Plasma HIV-1 RNA: −0.42 ± 0.20 log10
Plasma HIV-1 RNA; 25 mg
  drop in viral load, subject with mutant virus L41+N103+C181+W210+D215: 0.43 log10
Plasma HIV-1 RNA; 25 mg, 12 h
  Change in Plasma HIV-1 RNA: 0.03 ± 0.09 log10
Plasma HIV-1 RNA; 25 mg, 24 h
  Change in Plasma HIV-1 RNA: −0.13 ± 0.10 log10
Plasma HIV-1 RNA; 25 mg, 48 h
  Change in Plasma HIV-1 RNA: −0.34 ± 0.26 log10
Plasma HIV-1 RNA; 100 mg, 12 h
  Change in Plasma HIV-1 RNA: −0.03 ± 0.08 log10
Plasma HIV-1 RNA; 100 mg, 24 h
  Change in Plasma HIV-1 RNA: −0.15 ± 0.14 log10
Plasma HIV-1 RNA; 100 mg, 48 h
  Change in Plasma HIV-1 RNA: −0.44 ± 0.17 log10
Plasma HIV-1 RNA; 100 mg
  reduction of viral load: 0.44±0.17
Plasma HIV-1 RNA; 200 mg, 12 h
  Change in Plasma HIV-1 RNA: −0.02 ± 0.24 log10
Plasma HIV-1 RNA; 200 mg, 24 h
  Change in Plasma HIV-1 RNA: −0.06 ± 0.22 log10
Plasma HIV-1 RNA; 200 mg, 48 h
  Change in Plasma HIV-1 RNA: −0.27 ± 0.28 log10
Plasma HIV-1 RNA; 50s mg (solution), 12 h
  Change in Plasma HIV-1 RNA: 0.00 ± 0.00 log10
Plasma HIV-1 RNA; 50s mg (solution), 24 h
  Change in Plasma HIV-1 RNA: −0.11 ± 0.07 log10
Plasma HIV-1 RNA; 50s mg (solution), 48 h
  Change in Plasma HIV-1 RNA: −0.44 ± 0.02 log10
Plasma HIV-1 RNA; 50t mg (tablet), 12 h
  Change in Plasma HIV-1 RNA: 0.05 ± 0.07 log10
Plasma HIV-1 RNA; 50t mg (tablet), 24 h
  Change in Plasma HIV-1 RNA: −0.08 ± 0.07 log10
Plasma HIV-1 RNA; 50t mg (tablet), 48 h
  Change in Plasma HIV-1 RNA: −0.46 ± 0.25 log10
Plasma HIV-1 RNA; 24 hour time point
  average reduction of viral load: 0.11±0.11
Plasma HIV-1 RNA; all dose levels, up to 48 hours
  mean reduction of viral load after a single oral dose: 0.4±0.2 log10 and 0.42±0.2 log10
Plasma HIV-1 RNA; various dosage levels, 24 and 48 hours
  mean reduction of viral load after a single oral dose: approximately 40%

Source: patent publication US20050244490A1, “Dosing methods for beta-D-2',3'-dideoxy-2',3'-didehydro-5-fluorocytidine antiviral therapy” (priority 2003, published 2005)
